Where two headings read alike, the source gives them in different places.
Key:
pLAI reporter virus = assay: microbe, parasite or virus in culture; assay type: cell-based, HIV; conditions: Human immunodeficiency virus 1, MT4, 72 h
in vitro = conditions: human, uninfected MT-4 cells
HIV-1 (IIIB) = assay: microbe, parasite or virus in culture; assay type: cell-based; conditions: Human immunodeficiency virus 1, IIIB, MT4, 120 h, read-out: MT4 EC50
[1] = HIV-1 (IIIB) in MT-4 cells, 5 days incubation, Cell Titer Glo

| Compound | EC50 (pLAI reporter virus; read-out: RLUC 50% HS EC50) | EC50 (pLAI reporter virus; read-out: RLUC CCM EC50) | CC50 at 5 days (in vitro) | EC50 (HIV-1 (IIIB); [1]) | EC50 (HIV-1 (IIIB)) |
| --- | --- | --- | --- | --- | --- |
| CC1C[C@@]2(CC[C@H](C)N3C[C@H]2n2cc(C(=O)NCc4c(F)cc(F)cc4F)c(=O)c(O)c2C3=O)OCO1 (stereo partly drawn) [Example 124, (3′S,4R,7′R)-12′-hydroxy-3′,6-dimethyl-1′,11′-dioxo-N-(2,4,6-trifluorobenzyl)-1′,4′,5′,11′-tetrahydro-3′H,7′H-spiro[[1,3]dioxane-4,6′-[2,7]methanopyrido[1,2-a][1,4]diazonine]-10′-carboxamide] | 0.4 nM | 0.2 nM | 29800 nM | 0.8 nM |  |
| C[C@H]1CCC2(OCCO2)[C@H]2CN1C(=O)c1c(O)c(=O)c(C(=O)NCc3c(F)cc(F)cc3F)cn12 [Example 125, (3′S,7′R)-12′-hydroxy-3′-methyl-1′,11′-dioxo-N-(2,4,6-trifluorobenzyl)-1′,4′,5′,11′-tetrahydro-3′H,7′H-spiro[[1,3]dioxolane-2,6′-[2,7]methanopyrido[1,2-a][1,4]diazonine]-10′-carboxamide] | 30.2 nM | 0.2 nM | 24200 nM | 0.7 nM |  |
| C[C@H]1CO[C@]2(CC[C@H](C)N3C[C@H]2n2cc(C(=O)NCc4c(F)cc(F)cc4F)c(=O)c(O)c2C3=O)O1 [Example 127, (2R,3′S,4S,7′R)-12′-hydroxy-3′,4-dimethyl-1′,11′-dioxo-N-(2,4,6-trifluorobenzyl)-1′,4′,5′,11′-tetrahydro-3′H,7′H-spiro[[1,3]dioxolane-2,6′-[2,7]methanopyrido[1,2-a][1,4]diazonine]-10′-carboxamide] | 13.3 nM | 0.1 nM | 49900 nM | 1.2 nM |  |
| C[C@H]1CCC2(OCCCO2)[C@H]2CN1C(=O)c1c(O)c(=O)c(C(=O)NCc3c(F)cc(F)cc3F)cn12 [Example 128, (3′S,7′R)-12′-hydroxy-3′-methyl-1′,11′-dioxo-N-(2,4,6-trifluorobenzyl)-1′,4′,5′,11′-tetrahydro-3′H,7′H-spiro[[1,3]dioxane-2,6′-[2,7]methanopyrido[1,2-a][1,4]diazonine]-10′-carboxamide] | 18.4 nM | 0.2 nM | 20500 nM | 1.1 nM |  |
| C[C@H]1CCC2(OCCO2)[C@H]2CN1C(=O)c1c(O)c(=O)c(C(=O)NCc3ccc(F)cc3F)cn12 [Example 129, (3′S,7′R)—N-(2,4-difluorobenzyl)-12′-hydroxy-3′-methyl-1′,11′-dioxo-1′,4′,5′,11′-tetrahydro-3′H,7′H-spiro[[1,3]dioxolane-2,6′-[2,7]methanopyrido[1,2-a][1,4]diazonine]-10′-carboxamide] | 8 nM | 0.2 nM | 27400 nM | 0.5 nM |  |
| C[C@H]1CC[C@]2(COCO2)[C@H]2CN1C(=O)c1c(O)c(=O)c(C(=O)NCc3c(F)cc(F)cc3F)cn12 [Example 130, (3′S,4R,7′R)-12′-hydroxy-3′-methyl-1′,11′-dioxo-N-(2,4,6-trifluorobenzyl)-1′,4′,5′,11′-tetrahydro-3′H,7′H-spiro[[1,3]dioxolane-4,6′-[2,7]methanopyrido[1,2-a][1,4]diazonine]-10′-carboxamide] | 363 nM | 0.2 nM | 9840 nM | 0.9 nM |  |
| C[C@H]1CC[C@@]2(COCO2)[C@H]2CN1C(=O)c1c(O)c(=O)c(C(=O)NCc3c(F)cc(F)cc3F)cn12 [Example 131, (3′S,4S,7′R)-12′-hydroxy-3′-methyl-1′,11′-dioxo-N-(2,4,6-trifluorobenzyl)-1′,4′,5′,11′-tetrahydro-3′H,7′H-spiro[[1,3]dioxolane-4,6′-[2,7]methanopyrido[1,2-a][1,4]diazonine]-10′-carboxamide] | 8.1 nM | 0.5 nM | 28900 nM | 1.9 nM |  |
| C[C@@H]1OC[C@]2(CC[C@H](C)N3C[C@H]2n2cc(C(=O)NCc4c(F)cc(F)cc4F)c(=O)c(O)c2C3=O)O1 [Example 133, (2R,3′S,4R,7′R)-12′-hydroxy-2,3′-dimethyl-1′,11′-dioxo-N-(2,4,6-trifluorobenzyl)-1′,4′,5′,11′-tetrahydro-3′H,7′H-spiro[[1,3]dioxolane-4,6′-[2,7]methanopyrido[1,2-a][1,4]diazonine]-10′-carboxamide] | 102 nM | 0.5 nM | 20200 nM | 1.7 nM |  |
| C[C@H]1CC[C@]2(CO[C@H](Cc3ccccc3)O2)[C@H]2CN1C(=O)c1c(O)c(=O)c(C(=O)NCc3c(F)cc(F)cc3F)cn12 [Example 134, (2S,3′S,4R,7′R)-2-benzyl-12′-hydroxy-3′-methyl-1′,11′-dioxo-N-(2,4,6-trifluorobenzyl)-1′,4′,5′,11′-tetrahydro-3′H,7′H-spiro[[1,3]dioxolane-4,6′-[2,7]methanopyrido[1,2-a][1,4]diazonine]-10′-carboxamide] | 6.3 nM | 1.9 nM | 8500 nM |  | 4.8 nM |
| C[C@H]1CC[C@]2(COC(Cc3ccccc3)O2)[C@H]2CN1C(=O)c1c(O)c(=O)c(C(=O)NCc3c(F)cc(F)cc3F)cn12 (stereo partly drawn) [Example 135, (2R,3′S,4R,7′R)-2-benzyl-12′-hydroxy-3′-methyl-1′,11′-dioxo-N-(2,4,6-trifuorobenzyl)-1′,4′,5′,11′-tetrahydro-3′H, 7′H-spiro(f[,3]dioxolane-4,6′-[2,7]methanopyrido[1,2-a][1,4]diazonine]-10′-carboxamide] | 581 nM | 2.6 nM | 6880 nM | 7.1 nM |  |
| C[C@H]1CC[C@@]2(COC(Cc3ccccc3)O2)[C@H]2CN1C(=O)c1c(O)c(=O)c(C(=O)NCc3c(F)cc(F)cc3F)cn12 (stereo partly drawn) [Example 136, (3′S,4S,7′R)-2-benzyl-12′-hydroxy-3′-methyl-1′,11′-dioxo-N-(2,4,6-trifluorobenzyl)-1′,4′,5′,11′-tetrahydro-3′H,7′H-spiro[[1,3]dioxolane-4,6′-[2,7]methanopyrido[1,2-a][1,4]diazonine]-10′-carboxamide] | 8.7 nM | 1.7 nM | 16600 nM |  | 5.8 nM |
| C[C@H]1CC[C@]2(COC(C)(C)O2)[C@H]2CN1C(=O)c1c(O)c(=O)c(C(=O)NCc3c(F)cc(F)cc3F)cn12 [Example 137, (3′S,4R,7′R)-12′-hydroxy-2,2,3′-trimethyl-1′,11′-dioxo-N-(2,4,6-trifluorobenzyl)-1′,4′,5′,11′-tetrahydro-3′H,7′H-spiro[[1,3]dioxolane-4,6′-[2,7]methanopyrido[1,2-a][1,4]diazonine]-10′-carboxamide] | 13.3 nM | 0.3 nM | 42400 nM | 1.5 nM |  |
| C[C@H]1CC[C@@]2(COC(C)(C)O2)[C@H]2CN1C(=O)c1c(O)c(=O)c(C(=O)NCc3c(F)cc(F)cc3F)cn12 [Example 138, (3′S,4S,7′R)-12′-hydroxy-2,2,3′-trimethyl-1′,11′-dioxo-N-(2,4,6-trifluorobenzyl)-1′,4′,5′,11′-tetrahydro-3′H,7′H-spiro[[1,3]dioxolane-4,6′-[2,7]methanopyrido[1,2-a][1,4]diazonine]-10′-carboxamide] | 13.1 nM | 0.5 nM | 23200 nM | 2 nM |  |
| C[C@H]1CC[C@]2(COCCO2)[C@H]2CN1C(=O)c1c(O)c(=O)c(C(=O)NCc3c(F)cc(F)cc3F)cn12 [Example 139, (2R,3′S,7′R)-12′-hydroxy-3′-methyl-1′,11′-dioxo-N-(2,4,6-trifluorobenzyl)-1′,4′,5′,11′-tetrahydro-3′H,7′H-spiro[[1,4]dioxane-2,6′-[2,7]methanopyrido[1,2-a][1,4]diazonine]-10′-carboxamide] | 83.7 nM | 0.1 nM | 30900 nM | 1.4 nM |  |
| C[C@H]1CC[C@@]2(COCCO2)[C@H]2CN1C(=O)c1c(O)c(=O)c(C(=O)NCc3c(F)cc(F)cc3F)cn12 [Example 140, (2S,3′S,7′R)-12′-hydroxy-3′-methyl-1′,11′-dioxo-N-(2,4,6-trifluorobenzyl)-1′,4′,5′,11′-tetrahydro-3′H,7′H-spiro[[1,4]dioxane-2,6′-[2,7]methanopyrido[1,2-a][1,4]diazonine]-10′-carboxamide] | 1.7 nM | 0.1 nM | 22800 nM | 1.8 nM |  |
| C[C@H]1CC[C@]2(COC(F)(F)O2)[C@H]2CN1C(=O)c1c(O)c(=O)c(C(=O)NCc3c(F)cc(F)cc3F)cn12 [Example 141, (3′S,4R,7′R)-2,2-difluoro-12′-hydroxy-3′-methyl-1′,11′-dioxo-N-(2,4,6-trifluorobenzyl)-1′,4′,5′,11′-tetrahydro-3′H,7′H-spiro[[1,3]dioxolane-4,6′-[2,7]methanopyrido[1,2-a][1,4]diazonine]-10′-carboxamide] | 263 nM | 0.2 nM | 30400 nM | 0.9 nM |  |
| C[C@H]1CCC2(N=c3ccccc3=N2)[C@H]2CN1C(=O)c1c(O)c(=O)c(C(=O)NCc3c(F)cc(F)cc3F)cn12 [Example 142, (3′S,7′R)-12′-hydroxy-3′-methyl-1′,11′-dioxo-N-(2,4,6-trifluorobenzyl)-1′,4′,5′,11′-tetrahydro-3′H,7′H-spiro[benzo[d]imidazole-2,6′-[2,7]methanopyrido[1,2-a][1,4]diazonine]-10′-carboxamide] | 0.7 nM | 0.5 nM | ≥ 50000 nM |  | 3.9 nM |
| C[C@H]1CC[C@]2(Cc3ccccc3O2)[C@H]2CN1C(=O)c1c(O)c(=O)c(C(=O)NCc3c(F)cc(F)cc3F)cn12 [Example 143, (2S,3′S,7′R)-12′-hydroxy-3′-methyl-1′,11′-dioxo-N-(2,4,6-trifluorobenzyl)-1′,4′,5′,11′-tetrahydro-3H,3′H,7′H-spiro[benzofuran-2,6′-[2,7]methanopyrido[1,2-a][1,4]diazonine]-10′-carboxamide] | 78.4 nM | 0.1 nM | 24400 nM | 1.4 nM |  |
